Data from US20260374773A1, “MULTI-CYCLIC IRAK AND FLT3 INHIBITING COMPOUNDS AND USES THEREOF” (CHILDREN'S HOSPITAL MEDICAL CENTER, priority 2022, published 2026).

Experiments:
IRAK4 = target: T1, IRAK4 (Homo sapiens, UniProt Q9NWZ3); assay: RBC HotSpot kinase inhibition assay, IRAK4; type: biochemical; settings: isolated kinase, 33P-ATP, 2 h
T1 sequence (Q9NWZ3 1-460): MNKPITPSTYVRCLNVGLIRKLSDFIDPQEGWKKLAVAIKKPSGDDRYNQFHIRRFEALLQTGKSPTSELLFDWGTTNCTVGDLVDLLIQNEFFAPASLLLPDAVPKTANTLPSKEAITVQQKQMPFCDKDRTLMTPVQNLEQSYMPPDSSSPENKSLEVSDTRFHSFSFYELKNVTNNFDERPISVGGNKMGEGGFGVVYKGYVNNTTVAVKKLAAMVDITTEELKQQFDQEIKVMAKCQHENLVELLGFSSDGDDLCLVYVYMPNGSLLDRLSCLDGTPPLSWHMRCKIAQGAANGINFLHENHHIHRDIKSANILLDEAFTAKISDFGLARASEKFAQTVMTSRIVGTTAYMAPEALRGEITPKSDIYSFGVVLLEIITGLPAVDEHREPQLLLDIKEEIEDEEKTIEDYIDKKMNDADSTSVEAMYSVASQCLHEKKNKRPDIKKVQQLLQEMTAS
Outline: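 Isolated kinases, possibly truncated or lacking regulatory receptor domains, in 20 mM Hepes pH 7.5, 10 mM MgCl2, 1 mM EGTA, 0.01% Brij35, 2 mM DTT, 1% DMSO with substrate and cofactors. Compound preincubated 20 min, then ^33P-ATP added; 2 h at room temperature, read by P81 filter binding.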

MOLM14 D835Y cells = assay: MOLM14 D835Y cell viability (Cell Titer Glo); type: cell-based; settings: Homo sapiens
Outline: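 FLT3-D835Y-mutant MOLM14 cells, 1000/well in RPMI-1640 with 20% FBS, treated with 22-point 1:2 dilutions starting at 10 μM. After 48 h incubation, viability was read by CellTiter-Glo luminescence; bortezomib (2.3 μM final) served as cytotoxic control.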

IC50 (IRAK4; Table 17) [nM]	IC50 (MOLM14 D835Y cells; MOLM-14, Table 22, 48 h) [nM]	IC50 (IRAK4; Table 11) [nM]	IC50 (MOLM14 D835Y cells; MOLM-14, Table 16, 48 h) [nM]	SMILES
15	86	–	–	COc1cn2ncc(-c3ccnc(N[C@H]4CNCC[C@@H]4F)n3)c2nc1C(C)(C)O [Compound 3a, 2-(3-(2-(((3S,4S)-4-fluoropiperidin-3-yl)amino)pyrimidin-4-yl)-6-methoxypyrazolo[1,5-a]pyrimidin-5-yl)propan-2-ol]
–	–	3	20	COc1cn2ncc(-c3ccc(F)c(N[C@@H]4CCCNC4)n3)c2nc1C1CC1 [Compound 5, (R)-6-(5-cyclopropyl-6-methoxypyrazolo[1,5-a]pyrimidin-3-yl)-3-fluoro-N-(piperidin-3-yl)pyridin-2-amine]
–	–	< 0.5	2	COc1cn2ncc(-c3nc(N[C@H]4CNCC[C@@H]4F)ccc3F)c2nc1C1CC1 [Compound 3, 6-(5-cyclopropyl-6-methoxypyrazolo[1,5-a]pyrimidin-3-yl)-5-fluoro-N-((3S,4S)-4-fluoropiperidin-3-yl)pyridin-2-amine]
–	–	0.6	11	COc1cn2ncc(-c3ccc(F)c(N[C@H]4CNCC[C@@H]4F)n3)c2nc1C1CC1 [Compound 6, 6-(5-cyclopropyl-6-methoxypyrazolo[1,5-a]pyrimidin-3-yl)-3-fluoro-N-((3S,4S)-4-fluoropiperidin-3-yl)pyridin-2-amine]
< 0.5	4	–	–	COc1cn2ncc(-c3nc(N[C@H]4CNC[C@@H]4F)ncc3F)c2nc1C1CC1 [Compound 13a, 4-(5-cyclopropyl-6-methoxypyrazolo[1,5-a]pyrimidin-3-yl)-5-fluoro-N-((3S,4S)-4-fluoropyrrolidin-3-yl)pyrimidin-2-amine]
–	–	< 0.5	16	COc1cn2ncc(-c3nc(N[C@@H]4CCCNC4)c(C#N)cc3F)c2nc1C(C)(C)O [Compound 9, (R)-5-fluoro-6-(5-(2-hydroxypropan-2-yl)-6-methoxypyrazolo[1,5-a]pyrimidin-3-yl)-2-(piperidin-3-ylamino)nicotinonitrile]
1	7	–	–	COc1cn2ncc(-c3ccnc(N[C@H]4CNCC[C@@H]4F)n3)c2nc1C1CC1 [Compound 7a, 4-(5-cyclopropyl-6-methoxypyrazolo[1,5-a]pyrimidin-3-yl)-N-((3S,4S)-4-fluoropiperidin-3-yl)pyrimidin-2-amine]
0.7	25	–	–	COc1cn2ncc(-c3nc(N[C@H]4CNC[C@@H]4F)ncc3F)c2nc1C(C)(C)O [Compound 5a, 2-(3-(5-fluoro-2-(((3S,4S)-4-fluoropyrrolidin-3-yl)amino)pyrimidin-4-yl)-6-methoxypyrazolo[1,5-a]pyrimidin-5-yl)propan-2-ol]
